Test results reported in ChEMBL document CHEMBL4828778, “Novel Compounds as PHD Inhibitors for Treating Heart, Lung, Liver, and Kidney Diseases” (ACS Med Chem Lett, 2021).

Legend:
Egl nine homolog 1 = Egl nine homolog 1 (Homo sapiens, UniProt Q9GZT9); test: Inhibition of full length human N-terminal His-tagged/TEV cleavage fused PHD2 expressed in baculovirus infected insect cells using HIF1/C35 complex as substrate preincubated for 30 mins followed by substrate addition measured after 10 mins by TR-FRET assay
Prolyl hydroxylase EGLN3 = Prolyl hydroxylase EGLN3 (Homo sapiens, UniProt Q9H6Z9); test: Inhibition of recombinant full length human N-terminal 6His-tagged PHD3 expressed Escherichia coli using HIF1/C35 complex as substrate preincubated for 30 mins followed by substrate addition measured after 10 mins by TR-FRET assay
Prolyl hydroxylase EGLN2 = Prolyl hydroxylase EGLN2 (Homo sapiens, UniProt Q96KS0); test: Inhibition of recombinant full length human N-terminal FLAG-tagged PHD1 expressed in baculovirus expression system using HIF1/C35 complex as substrate preincubated for 30 mins followed by substrate addition measured after 10 mins by TR-FRET assay
Prolyl hydroxylase EGLN2, sequence (Q96KS0 whole entry): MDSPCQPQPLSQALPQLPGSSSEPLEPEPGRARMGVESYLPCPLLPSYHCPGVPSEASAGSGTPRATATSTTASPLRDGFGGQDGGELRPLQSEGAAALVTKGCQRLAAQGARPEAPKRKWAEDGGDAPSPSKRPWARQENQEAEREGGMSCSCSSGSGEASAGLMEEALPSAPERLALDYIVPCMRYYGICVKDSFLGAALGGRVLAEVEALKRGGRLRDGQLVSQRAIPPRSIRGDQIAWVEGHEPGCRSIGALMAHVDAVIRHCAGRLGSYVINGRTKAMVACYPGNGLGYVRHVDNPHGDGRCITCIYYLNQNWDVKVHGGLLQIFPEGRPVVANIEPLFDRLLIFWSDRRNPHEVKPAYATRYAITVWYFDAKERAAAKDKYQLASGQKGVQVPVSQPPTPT

Egl nine homolog 1, sequence (Q9GZT9 whole entry, the tested form may be a part): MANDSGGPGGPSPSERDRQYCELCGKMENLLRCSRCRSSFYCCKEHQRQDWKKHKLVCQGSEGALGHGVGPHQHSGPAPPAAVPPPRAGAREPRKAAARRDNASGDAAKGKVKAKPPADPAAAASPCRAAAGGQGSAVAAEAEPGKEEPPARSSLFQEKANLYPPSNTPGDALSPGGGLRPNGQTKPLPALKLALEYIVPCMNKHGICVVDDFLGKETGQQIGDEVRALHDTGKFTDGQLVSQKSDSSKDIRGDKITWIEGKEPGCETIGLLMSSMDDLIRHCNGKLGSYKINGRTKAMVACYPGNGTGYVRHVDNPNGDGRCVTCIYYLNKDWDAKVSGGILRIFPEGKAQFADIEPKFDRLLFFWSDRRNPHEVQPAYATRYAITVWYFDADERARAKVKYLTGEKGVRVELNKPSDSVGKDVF
Prolyl hydroxylase EGLN3, sequence (Q9H6Z9 whole entry): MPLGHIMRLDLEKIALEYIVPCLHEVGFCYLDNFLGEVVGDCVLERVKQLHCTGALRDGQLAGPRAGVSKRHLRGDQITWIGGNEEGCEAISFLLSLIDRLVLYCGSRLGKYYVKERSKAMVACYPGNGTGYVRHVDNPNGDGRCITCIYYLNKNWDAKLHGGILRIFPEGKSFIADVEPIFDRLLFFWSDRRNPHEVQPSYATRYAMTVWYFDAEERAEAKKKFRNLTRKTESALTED

Row | IC50 (Egl nine homolog 1) [nM] | IC50 (Prolyl hydroxylase EGLN3) [nM] | IC50 (Prolyl hydroxylase EGLN2) [nM] | SMILES
1 | < 100 | < 100 | < 100 | N#Cc1ccc(-c2cnn(-c3ccc(-c4nccs4)cn3)c2O)cc1
2 | < 100 | < 100 | < 100 | CCC(=O)Nc1ccc(-n2ncc(-c3ccc(C#N)cc3)c2O)nc1
3 | < 100 | < 100 | < 100 | N#Cc1ccc(-c2cnn(-c3ccc(N4CCCC4=O)cn3)c2O)cc1
4 | < 100 | < 100 | < 100 | CS(=O)(=O)c1ccc(-n2ncc(-c3ccc(C#N)cc3)c2O)nc1
5 | < 100 | < 100 | < 100 | CC(=O)c1ccc(-n2ncc(-c3ccc(C#N)cc3)c2O)nc1
6 | < 100 | < 100 | < 100 | CCS(=O)(=O)Nc1ccc(-n2ncc(-c3ccc(C#N)cc3)c2O)nc1
